This note sets out measurements from patent US10954252B1, “Inhibitors of human immunodeficiency virus replication” (ViiV HEALTHCARE UK (NO.5) LIMITED, priority 2017, dated 2021).

As a reminder, the CC50 is the concentration giving 50% cytotoxicity. One may read the EC50 as the concentration at which the effect is half-maximal.

One series has as its system uninfected MT2 cells. The series is described as follows: Compound cytotoxicity, XTT-based colorimetric assay. It is filed as cell-based. In outline: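 XTT colorimetric read-out on day 4 gave CC50 values, using MT2 cells left uninfected but otherwise handled as in the antiviral assay.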
A general note: Tetrazolium assays rely on reduction of a dye to a coloured formazan, in cell work by metabolically active cells.

Series [1] deals with recombinant NL4-3 virus (nef section replaced with Renilla luciferase gene) in MT-2 cells. Briefly: HIV cell culture assay (antiviral activity, luciferase readout). Format: cell-based. To be noted: MT-2 cells infected for 4-5 days with recombinant NL4-3 luciferase virus. In outline:
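Serially diluted compounds were present throughout a 4-5 day infection of MT-2 cells by recombinant NL4-3 whose nef region partly encodes Renilla luciferase. Antiviral activity was taken from live-cell luciferase signal, with the 50% effective concentration fitted by the exponential median effect equation.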

On to `Cn1nc(NS(C)(=O)=O)c2c(Cl)ccc(-n3c([C@H](Cc4cc(F)cc(F)c4)NC(=O)Cn4nc(C(F)F)c5c4C(F)(F)[C@@H]4C[C@H]54)nc4c(Cl)cccc4c3=O)c21` (single isomer, unassigned) [Example 102], for which the cytotoxic concentration (CC50) in the series on uninfected MT2 cells (Table 1a, day 4, XTT) is greater than 1000 nM. The 50% effective concentration (EC50) in series [1] (Table 1a) was determined as 1.04 nM.

`Cn1nc(NS(C)(=O)=O)c2c(Cl)ccc(-c3cc4[nH]ccc4nc3C(Cc3cc(F)cc(F)c3)NC(=O)Cn3nc(C(F)F)c4c3C(F)(F)[C@@H]3C[C@H]43)c21` (single isomer, unassigned) [Example 5.2] yielded a CC50 in the series with uninfected MT2 cells (Table 1, day 4, XTT) greater than 10000 nM. Besides, the EC50 in series [1] (Table 1) amounted to 400 nM.

For the molecule `O=C(Cn1nc(C(F)F)c2c1C(F)(F)[C@@H]1C[C@H]21)N[C@H](Cc1cc(F)cc(F)c1)c1nc2cn[nH]c2cc1-c1ccc2scnc2c1` (single isomer, unassigned) [Example 3.1], in the series with uninfected MT2 cells (Table 1, day 4, XTT), the CC50 came to 42100 nM. For the same molecule, in series [1] (Table 1), the half-maximal effective concentration (EC50) was 22 nM.

Molecule `COc1c(F)cc2c(=O)n(-c3ccc(Cl)c4c(NS(C)(=O)=O)nn(C)c34)c([C@H](Cc3cc(F)cc(F)c3)NC(=O)Cn3ccc(C4CC4)n3)nc2c1F` (single isomer, unassigned) [Example 116] yielded a CC50 in the series on uninfected MT2 cells (Table 1a, day 4, XTT) greater than 1000 nM. The half-maximal effective concentration (EC50) in series [1] (Table 1a) came to 0.231 nM.

Regarding `O=C(Cn1nc(C(F)F)c2c1C(F)(F)[C@@H]1C[C@H]21)NC(Cc1cc(F)cc(F)c1)c1nc2ncsc2cc1-c1ccc2scnc2c1` (single isomer, unassigned) [Example 1.1], the 50% cytotoxic concentration (CC50) in the series with uninfected MT2 cells (Table 1, day 4, XTT) is greater than 100000 nM. The concentration giving a half-maximal response (EC50) in series [1] (Table 1) was found to be 3.1 nM.

In turn, `Cn1ccc2nc(C(Cc3cc(F)cc(F)c3)NC(=O)Cn3nc(C(F)F)c4c3C(F)(F)[C@@H]3C[C@H]43)c(-c3ccc(Cl)c4c(NS(C)(=O)=O)nn(C)c34)cc21` (single isomer, unassigned) [Example 118] returned a cytotoxic concentration (CC50) in the series with uninfected MT2 cells (Table 1a, day 4, XTT) greater than 10000 nM. Also, in series [1] (Table 1a), the concentration for a half-maximal effect (EC50) turned out to be 0.162 nM.

In the series on uninfected MT2 cells (Table 1, day 4, XTT), `Cn1nc(NS(C)(=O)=O)c2c(Cl)ccc(-c3cc4scnc4nc3C(Cc3cc(F)cc(F)c3)NC(=O)Cn3nc(C(F)F)c4c3C(F)(F)[C@@H]3C[C@H]43)c21` (single isomer, unassigned) [Example 1.6] registered a half-maximal cytotoxic concentration (CC50) greater than 10000 nM. For the same molecule, the concentration for a half-maximal effect (EC50) in series [1] (Table 1) was found to be 1780 nM.

The molecule `Cn1nc(NS(C)(=O)=O)c2c(Cl)ccc(-c3c(C(Cc4cc(F)cc(F)c4)NC(=O)Cn4nc(C(F)F)c5c4C(F)(F)[C@@H]4C[C@H]54)ncc4[nH]cnc34)c21` (single isomer, unassigned) [Example 7.5] showed a CC50 in the series on uninfected MT2 cells (Table 1, day 4, XTT) greater than 10000 nM. Also, the concentration for a half-maximal effect (EC50) in series [1] (Table 1) is 1320 nM.

The molecule `COc1cc(F)c2c(=O)n(-c3ccc(Cl)c4c(NS(C)(=O)=O)nn(C)c34)c([C@H](Cc3cc(F)cc(F)c3)NC(=O)Cn3ccc(C4CC4)n3)nc2c1` (single isomer, unassigned) [Example 190] registered a half-maximal cytotoxic concentration (CC50) in the series on uninfected MT2 cells (Table 1a, day 4, XTT) greater than 1000 nM. In series [1] (Table 1a), the 50% effective concentration (EC50) is 42.2 nM.

As to `Cn1nc(NS(C)(=O)=O)c2c(Cl)ccc(-n3c([C@H](Cc4cc(F)cc(F)c4)NC(=O)Cn4nc(C(F)F)c5c4C(F)(F)[C@@H]4C[C@H]54)nc4ncccc4c3=O)c21` (single isomer, unassigned) [Example 10.40], in the series with uninfected MT2 cells (Table 1, day 4, XTT), the CC50 is greater than 10000 nM. Also, the EC50 in series [1] (Table 1) was 0.0189 nM.

As for `Cc1cccc2nc([C@H](Cc3cc(F)cc(F)c3)NC(=O)Cn3ccc(C4CC4)n3)n(-c3ccc(Cl)c4c(NS(C)(=O)=O)nn(C)c34)c(=O)c12` (single isomer, unassigned) [Example 134], the cytotoxic concentration (CC50) in the series on uninfected MT2 cells (Table 1a, day 4, XTT) was greater than 1000 nM. In addition, in series [1] (Table 1a), the EC50 was 2.21 nM.

On to `CS(=O)(=O)Nc1nn(CC(F)(F)F)c2c(-c3cc4[nH]ncc4nc3[C@H](Cc3cc(F)cc(F)c3)NC(=O)Cn3nc(C(F)F)c4c3C(F)(F)[C@@H]3C[C@H]43)ccc(Cl)c12` (single isomer, unassigned) [Example 95], for which the half-maximal cytotoxic concentration (CC50) with uninfected MT2 cells (Table 1a, day 4, XTT) was greater than 1000 nM. Besides, the EC50 in series [1] (Table 1a) turned out to be 0.094 nM.

Molecule `Cn1nc(NS(C)(=O)=O)c2c(Cl)ccc(-n3c([C@H](Cc4cc(F)cc(F)c4)NC(=O)Cn4nc(C(F)F)c5c4C(F)(F)[C@@H]4C[C@H]54)nc4cc(Cl)cc(Cl)c4c3=O)c21` (single isomer, unassigned) [Example 180] had a 50% cytotoxic concentration (CC50) with uninfected MT2 cells (Table 1a, day 4, XTT) greater than 1000 nM. In addition, the EC50 in series [1] (Table 1a) was determined as 87.4 nM.

In the series with uninfected MT2 cells (Table 1a, day 4, XTT), `Cn1nc(NS(C)(=O)=O)c2c(Cl)ccc(-n3c([C@H](Cc4cc(F)cc(F)c4)NC(=O)Cn4ccc(C(F)(F)F)n4)nc4cc(C(F)(F)F)ccc4c3=O)c21` (single isomer, unassigned) [Example 142] gave a CC50 greater than 1000 nM. For the same molecule, the 50% effective concentration (EC50) in series [1] (Table 1a) is 4.98 nM.

In the series on uninfected MT2 cells (Table 1a, day 4, XTT), `Cn1ccc2nc([C@H](Cc3cc(F)cc(F)c3)NC(=O)Cn3nc(C(F)F)c4c3C(F)(F)[C@@H]3C[C@H]43)c(-c3ccc(Cl)c4c(NS(C)(=O)=O)nn(C)c34)cc21` (single isomer, unassigned) [Example 120] yielded a cytotoxic concentration (CC50) greater than 10000 nM. In series [1] (Table 1a), the EC50 was 0.0753 nM.

With `COc1c(F)ccc2c(=O)n(-c3ccc(Cl)c4c(NS(C)(=O)=O)nn(C)c34)c([C@H](Cc3cc(F)cc(F)c3)NC(=O)Cn3ccc(C4CC4)n3)nc12` (single isomer, unassigned) [Example 112], the cytotoxic concentration (CC50) in the series on uninfected MT2 cells (Table 1a, day 4, XTT) was greater than 1000 nM. Also, the half-maximal effective concentration (EC50) in series [1] (Table 1a) was 0.51 nM.

As to `Cn1nc(NS(C)(=O)=O)c2c(Cl)ccc(-n3c([C@H](Cc4cc(F)cc(F)c4)NC(=O)Cn4nc(C(F)F)c5c4C(F)(F)[C@@H]4C[C@H]54)nc4ccc(Cl)c(F)c4c3=O)c21` (single isomer, unassigned) [Example 177], the CC50 in the series with uninfected MT2 cells (Table 1a, day 4, XTT) was greater than 1000 nM. Further, in series [1] (Table 1a), the EC50 turned out to be 45 nM.

`Cn1nc(NS(C)(=O)=O)c2c(Cl)ccc(-n3c([C@H](Cc4cc(F)cc(F)c4)NC(=O)Cn4ccc(C5CC5)n4)nc4ccc(OC(F)(F)F)cc4c3=O)c21` (single isomer, unassigned) [Example 153]: in the series with uninfected MT2 cells (Table 1a, day 4, XTT), the CC50 was greater than 1000 nM. In addition, in series [1] (Table 1a), the EC50 amounted to 0.97 nM.

In the series on uninfected MT2 cells (Table 1a, day 4, XTT), `COc1ccc2nc([C@H](Cc3cc(F)cc(F)c3)NC(=O)Cn3nc(C(F)F)c4c3C(F)(F)[C@@H]3C[C@H]43)n(-c3ccc(Cl)c4c(NS(C)(=O)=O)nn(C)c34)c(=O)c2c1` (single isomer, unassigned) [Example 174] returned a half-maximal cytotoxic concentration (CC50) greater than 1000 nM. Moreover, in series [1] (Table 1a), the concentration for a half-maximal effect (EC50) was 0.096 nM.

`Cn1nc(NS(C)(=O)=O)c2c(Cl)ccc(-n3c([C@H](Cc4cc(F)cc(F)c4)NC(=O)Cn4ccc(C5CC5)n4)nc4cc(CS(C)(=O)=O)ccc4c3=O)c21` (single isomer, unassigned) [Example 206] showed a cytotoxic concentration (CC50) in the series with uninfected MT2 cells (Table 1a, day 4, XTT) greater than 1000 nM. The EC50 in series [1] (Renilla, NL43, Table 1a) was 0.64 nM.

Consider `Cn1nc(NS(C)(=O)=O)c2c(Cl)ccc(-c3cc4[nH]ccc4nc3C(Cc3cc(F)cc(F)c3)NC(=O)Cn3nc(C(F)F)c4c3C(F)(F)[C@@H]3C[C@H]43)c21` (single isomer, unassigned) [Example 5.4], for which, in the series on uninfected MT2 cells (Table 1, day 4, XTT), the CC50 is greater than 10000 nM. The EC50 in series [1] (Table 1) turned out to be 0.2 nM.

For the molecule `Cn1ccc2nc([C@@H](Cc3cc(F)cc(F)c3)NC(=O)Cn3nc(C(F)F)c4c3C(F)(F)[C@@H]3C[C@H]43)c(-c3ccc(Cl)c4c(NS(C)(=O)=O)nn(C)c34)cc21` (single isomer, unassigned) [Example 122], the CC50 in the series on uninfected MT2 cells (Table 1a, day 4, XTT) is greater than 10000 nM. The concentration giving a half-maximal response (EC50) in series [1] (Table 1a) stood at 172 nM.

Consider `Cn1nc(NS(C)(=O)=O)c2c(Cl)ccc(-n3c([C@H](Cc4cc(F)cc(F)c4)NC(=O)Cn4ccc(C5CC5)n4)nc4c(F)ccc(F)c4c3=O)c21` (single isomer, unassigned) [Example 146], for which the CC50 in the series with uninfected MT2 cells (Table 1a, day 4, XTT) was greater than 1000 nM. Also, the EC50 in series [1] (Table 1a) came out at 0.62 nM.

Molecule `COc1ccc2c(=O)n(-c3ccc(Cl)c4c(NS(C)(=O)=O)nn(CC(F)F)c34)c([C@H](Cc3cc(F)cc(F)c3)NC(=O)Cn3ccc(C4CC4)n3)nc2n1` (atropisomer, axis not shown) [Example 55.2, N-[(1S)-1-{3-[4-chloro-1-(2,2-difluoroethyl)-3-methanesulfonamido-1H-indazol-7-yl]-7-methoxy-4-oxo-3H,4H-pyrido[2,3-d]pyrimidin-2-yl}-2-(3,5-difluorophenyl)ethyl]-2-(3-cyclopropyl-1H-pyrazol-1-yl)acetamide] came in with a cytotoxic concentration (CC50) in the series on uninfected MT2 cells (Table 1a, day 4, XTT) greater than 1000 nM. The 50% effective concentration (EC50) in series [1] (Table 1a) is 0.33 nM.

For `Cn1nc(NS(C)(=O)=O)c2c(Cl)ccc(-n3c([C@H](Cc4cc(F)cc(F)c4)NC(=O)Cn4nc(C(F)F)c5c4C(F)(F)[C@@H]4C[C@H]54)nc4cc(C(C)(C)S(C)(=O)=O)ccc4c3=O)c21` (mixture of isomers) [Example 208, N—((S)-1-(3-(4-chloro-1-methyl-3-(methylsulfonamido)-1H-indazol-7-yl)-7-(2-(methylsulfonyl)propan-2-yl)-4-oxo-3,4-dihydroquinazolin-2-yl)-2-(3,5-difluorophenyl)ethyl)-2-((3bS,4aR)-3-(difluoromethyl)-5,5-difluoro-3b,4,4a,5-tetrahydro-1H-cyclopropa[3,4]cyclopenta[1,2-c]pyrazol-1-yl)acetamide], the CC50 with uninfected MT2 cells (Table 1a, day 4, XTT) is greater than 1000 nM. Also, the EC50 in series [1] (Table 1a) amounted to 0.083 nM.

Turning to `COc1cccc2nc([C@H](Cc3cc(F)cc(F)c3)NC(=O)Cn3nc(C(F)F)c4c3C(F)(F)[C@@H]3C[C@H]43)n(-c3ccc(Cl)c4c(NS(C)(=O)=O)nn(C)c34)c(=O)c12` (mixture of isomers) [Example 170, N—((S)-1-(3-(4-chloro-1-methyl-3-(methylsulfonamido)-1H-indazol-7-yl)-5-methoxy-4-oxo-3,4-dihydroquinazolin-2-yl)-2-(3,5-difluorophenyl)ethyl)-2-((3bS,4aR)-3-(difluoromethyl)-5,5-difluoro-3b,4,4a,5-tetrahydro-1H-cyclopropa[3,4]cyclopenta[1,2-c]pyrazol-1-yl)acetamide], in the series on uninfected MT2 cells (Table 1a, day 4, XTT), the CC50 was greater than 1000 nM. Besides, the concentration giving a half-maximal response (EC50) in series [1] (Table 1a) was determined as 0.052 nM.
